Reference: patent US20240075160A1, “COMBINATION THERAPIES FOR TREATMENT OF CANCER” (MedImmune, LLC, priority 2022, published 2024)

What was measured:
PC9-MART1-GFP cells = test: T cell mediated cytolysis in co-culture of MART-1 reactive CD8+ T cells and tumor cells (Incucyte, loss of GFP); format: cell-based; settings: single agent; bispecific 2 nM, ADC 0.05 μg/ml; E:T 4:1 or 5:1; five days after T cell addition
Method: A co-culture assay system was developed which utilized melanoma antigen Melan A (MART-1) reactive T cells and PC9 lung adenocarcinoma cells engineered to express both the MART-1 antigen and Green Fluorescent Protein (GFP). Tumor cell lysis was evaluated utilizing the Sartorius Incucyte Live Cell Analysis System whereby loss of GFP signal intensity was used as a surrogate marker for cell death. Briefly, PC9-MART1-GFP cells were harvested from cell culture flasks using trypsin, washed once with complete RPMI media as defined in Example 1, resuspended and added to each well of 96 well clear bottom, opaque walled optical plates for 24 hours at 37° C. in 5% CO2 as per the manufacturer's instructions. The PD-1-TIGIT (AZD2936), PD-1-TIM3 (AZD7789) or PD-1-CTLA4 (MEDI5752) bispecific antibodies were used at 2 nM concentration. The hRS7(TROP2)-TOP1i ADC was used at 0.05 μg/ml. Treatments were added alone or in combination to wells immediately before rested, antigen-specific CD8+ T cells were added at effector to target (E:T) ratios of 4:1 or 5:1 effector T cells to target tumor cells depending on the donor. Tumor cell death and percent cytolysis were measured five days after T cell addition by image analysis of GFP intensity per well. Data are from experiments with 3 unique donors. Statistical significance for the indicated comparisons is denoted as * p<0.05, ** p<0.01, p<0.001.

human IFN-7 = test: IFN-γ release in supernatants of co-culture of tumor cells and tumor reactive CD8+ T cells (Mesoscale ELISA); format: cell-based; settings: MART-1 reactive T cell-PC9 co-culture
Method: Antigen specific CD8+ T-cells secrete IFN-γ upon tumor antigen recognition. To evaluate the amount of IFN-7 detected within the supernatants of co-cultures containing PC9-MART1-GFP tumor cells and tumor reactive CD8+ T cells, separate parallel co-cultures were established in Nunc 96 well plates (Sigma Aldrich) alongside the Incucyte optical plates. For evaluation of IFN-7 release, supernatants were harvested from co-cultures in the Nunc 96 well plates 24, 72 and 144 hours later. IFN-7 was measured using Mesoscale Discovery multi-spot ELISA for human IFN-7 as per the manufacturer's instructions. […] For the MART-1 tumor antigen reactive T cell-PC9 lung adenocarcinoma co-culture, IFN-7 secretion by T cells was retained in the presence of the hRS7(TROP2)-TOP1i ADC alone, AZD2936 and MEDI5752 both alone and in combination with the ADC, FIG. 4C-4D. AZD7789 enhanced IFN-7, which was retained in combination with the hRS7(TROP2)-TOP1i ADC FIG. 4E.

[1] = agent alone, supernatants at 24, 72 and 144 hours
[2] = in combination with the hRS7(TROP2)-TOP1i ADC

Substance: AZD2936: PD-1-TIGIT bispecific antibody
- T cell mediated cytolysis of PC9 tumor cells (PC9-MART1-GFP cells): enhanced
- IFN-7 secretion by T cells (human IFN-7; [1]): retained
- IFN-7 secretion by T cells (human IFN-7; [2]): retained

Substance: AZD7789: anti-TIM-3/PD-1 bispecific binding protein comprising sequences of monoclonal antibody 013-1 (TIM-3) and LO115 (PD-1)
- T cell mediated cytolysis of PC9 tumor cells (PC9-MART1-GFP cells): enhanced
- IFN-7 secretion by T cells (human IFN-7; [1]): enhanced
- IFN-7 secretion by T cells (human IFN-7; [2]): retained

Substance: MEDI5752: anti-PD-1/CTLA-4 bispecific antibody
- T cell mediated cytolysis of PC9 tumor cells (PC9-MART1-GFP cells): enhanced
- IFN-7 secretion by T cells (human IFN-7; [1]): retained
- IFN-7 secretion by T cells (human IFN-7; [2]): retained
